From patent US10189854B2, “Substituted pyrimidine compounds” (Grünenthal GmbH, priority 2014, dated 2019)

Target: human PDE4B1 (Homo sapiens (Human), UniProt Q07343)
Assay: cAMP HTRF assay to determine the activity of hPDE4B1
Type: biochemical
Conditions: IC50 inhibition of PDE4B; human recombinant PDE4B1, cAMP HTRF assay
Method in brief: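 Recombinant human PDE4B1 expressed in Sf9 cells (4.8 U) was incubated with 40 nM cAMP for 30 min at room temperature in Tris buffer, pH 7.8, with MgCl2, DTT and Tween 20. HTRF detection of remaining cAMP followed, with 1 mM IBMX stop, read 60 min later as the 665/620 nm ratio. Results are % inhibition versus control.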

human PDE4B1, sequence (Q07343 whole entry): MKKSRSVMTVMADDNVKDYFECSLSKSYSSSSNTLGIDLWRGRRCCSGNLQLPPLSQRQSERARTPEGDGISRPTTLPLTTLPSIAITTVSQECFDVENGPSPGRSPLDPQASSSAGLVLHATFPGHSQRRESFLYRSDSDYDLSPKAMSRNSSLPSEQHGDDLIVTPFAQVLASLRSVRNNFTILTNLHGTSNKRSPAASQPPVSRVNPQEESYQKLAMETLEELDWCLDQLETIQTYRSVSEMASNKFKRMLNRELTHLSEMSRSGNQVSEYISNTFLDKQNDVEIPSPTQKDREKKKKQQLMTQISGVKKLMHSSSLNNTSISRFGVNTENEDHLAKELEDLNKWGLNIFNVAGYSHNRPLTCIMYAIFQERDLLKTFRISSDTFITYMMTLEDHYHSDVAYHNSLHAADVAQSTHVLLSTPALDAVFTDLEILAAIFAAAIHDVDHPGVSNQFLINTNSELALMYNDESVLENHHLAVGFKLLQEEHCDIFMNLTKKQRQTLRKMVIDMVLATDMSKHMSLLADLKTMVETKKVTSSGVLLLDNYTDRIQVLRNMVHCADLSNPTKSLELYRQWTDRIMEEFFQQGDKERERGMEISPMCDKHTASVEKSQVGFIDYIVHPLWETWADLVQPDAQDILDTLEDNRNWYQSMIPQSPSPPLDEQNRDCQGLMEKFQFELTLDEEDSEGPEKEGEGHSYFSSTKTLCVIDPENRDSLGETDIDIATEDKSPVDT

## NC(=O)c1ccc(-c2cnc(N3CC4(CC4)c4ccc(C(=O)N5CCOCC5)cc43)nc2)cc1 [Compound 63, 4-[2-[6-(Morpholine-4-carbonyl)-spiro[1,2-dihydro-indole-3,1′-cyclopropane]-1-yl]-pyrimidin-5-yl]-benzamide]
  IC50: < 0.1 µM

## CN(C)C(=O)c1ccccc1-c1cnc(N2CC3(CC3)c3ccc(C(=O)N4CCOCC4)cc32)nc1 [Compound 21, N,N-Dimethyl-2-[2-[6-(morpholine-4-carbonyl)-spiro[1,2-dihydro-indole-3,1′-cyclopropane]-1-yl]-pyrimidin-5-yl]-benzamide]
  IC50: 0.1 to 1 µM

## COc1ccccc1-c1cnc(N2CC3(CC3)c3ccc(C(=O)N4CCOCC4)cc32)nc1 [Compound 31, [1-[5-(2-Methoxyphenyl)-pyrimidin-2-yl]-spiro[1,2-dihydro-indole-3,1′-cyclopropane]-6-yl]-morpholin-4-yl-methanone]
  IC50: < 0.1 µM

## Cc1ccnc(-c2cnc(N3CC4(CC4)c4ccc(C(=O)N5CCOCC5)cc43)nc2)c1 [Compound 192, [1-[5-(4-Methyl-pyridin-2-yl)-pyrimidin-2-yl]-spiro[1,2-dihydro-indole-3,1′-cyclopropane]-6-yl]-morpholin-4-yl-methanone]
  IC50: < 0.1 µM

## CN(C)[C@@H]1CCN(C(=O)c2ccc3c(c2)N(c2ncc(-c4ccccc4F)cn2)CC32CC2)C1 [Compound 77, [(3R)-3-Dimethylamino-pyrrolidin-1-yl]-[1-[5-(2-fluorophenyl)-pyrimidin-2-yl]-spiro[1,2-dihydro-indole-3,1′-cyclopropane]-6-yl]-methanone]
  IC50: 0.1 to 1 µM

## O=C(c1ccc2c(c1)N(c1ncc(-c3ccccc3F)cn1)CC21CC1)N1CCCCC1CO (stereo not shown) [Compound 97, [1-[5-(2-Fluorophenyl)-pyrimidin-2-yl]-spiro[1,2-dihydro-indole-3,1′-cyclopropane]-6-yl]-[2-(hydroxymethyl)-piperidin-1-yl]-methanone]
  IC50: 1 to 10 µM

## O=C(c1ccc2c(c1)N(c1ncc(-c3ccccc3F)cn1)CC21CC1)N1CC2CC1CN2 (stereo not shown) [Compound 107, (2,5-Diazabicyclo[2.2.1]heptan-2-yl)-[1-[5-(2-fluorophenyl)-pyrimidin-2-yl]-spiro[1,2-dihydro-indole-3,1′-cyclopropane]-6-yl]-methanone]
  IC50: < 0.1 µM

## N[C@@H]1CCN(C(=O)c2ccc3c(c2)N(c2ncc(-c4ccccc4)cn2)CC32CC2)C1 [Compound 108, [(3R)-3-Amino-pyrrolidin-1-yl]-[1-(5-phenyl-pyrimidin-2-yl)-spiro[1,2-dihydro-indole-3,1′-cyclopropane]-6-yl]methanone]
  IC50: < 0.1 µM

## O=C(c1ccc2c(c1)N(c1ncc(-c3ccccc3F)cn1)CC21CC1)N1CCN(C2CC2)CC1 [Compound 66, (4-Cyclopropyl-piperazin-1-yl)-[1-[5-(2-fluorophenyl)-pyrimidin-2-yl]-spiro[1,2-dihydro-indole-3,1′-cyclopropane]-6-yl]-methanone]
  IC50: 1 to 10 µM

## N[C@@H]1CCN(C(=O)c2ccc3c(c2)N(c2ncc(-c4ccccc4F)cn2)CC32CC2)C1 [Compound 40, [(3R)-3-Amino-pyrrolidin-1-yl]-[1-[5-(2-fluorophenyl)-pyrimidin-2-yl]-spiro[1,2-dihydro-indole-3,1′-cyclopropane]-6-yl]-methanone]
  IC50: < 0.1 µM

## 1-[5-(3-Cyano-phenyl)-pyrimidin-2-yl]-N-(2-hydroxy-ethyl)-N-methyl-spiro[1,2-dihydro-indole-3,1′-cyclopropane]-6-carboxylic acid amide [Compound 194]
  IC50: < 0.1 µM

## Cc1ccnc(-c2cnc(N3CC4(CC4)c4ccc(C(=O)N(C)CCO)cc43)nc2)c1 [Compound 210, N-(2-Hydroxy-ethyl)-N-methyl-1-[5-(4-methyl-pyridin-2-yl)-pyrimidin-2-yl]-spiro[1,2-dihydro-indole-3,1′-cyclopropane]-6-carboxylic acid amide]
  IC50: < 0.1 µM

## Morpholin-4-yl-[1-[5-[4-(trifluoromethyl)-pyridin-2-yl]-pyrimidin-2-yl]-spiro[1,2-dihydro-indole-3,1′-cyclopropane]-6-yl]-methanone [Compound 195]
  IC50: < 0.1 µM

## O=C(c1ccc2c(c1)N(c1ncc(-c3cccc(F)c3)cn1)CC21CC1)N1CCOCC1 [Compound 57, [1-[5-(3-Fluorophenyl)-pyrimidin-2-yl]-spiro[1,2-dihydro-indole-3,1′-cyclopropane]-6-yl]-morpholin-4-yl-methanone]
  IC50: < 0.1 µM

## NC(=O)c1ccnc(-c2cnc(N3CC4(CC4)c4ccc(C(=O)N5CCOCC5)cc43)nc2)c1 [Compound 164, 2-[2-[6-(Morpholine-4-carbonyl)-spiro[1,2-dihydro-indole-3,1′-cyclopropane]-1-yl]-pyrimidin-5-yl]-pyridine-4-carboxylic acid amide]
  IC50: < 0.1 µM

## O=C(c1ccc2c(c1)N(c1ncc(-c3ccccc3F)cn1)CC21CC1)N1CCC2(COC2)C1 [Compound 68, [1-[5-(2-Fluorophenyl)-pyrimidin-2-yl]-spiro[1,2-dihydro-indole-3,1′-cyclopropane]-6-yl]-(2-oxa-7-azaspiro[3.4]octan-7-yl)-methanone]
  IC50: 0.1 to 1 µM

## CN(CCO)C(=O)c1ccc2c(c1)N(c1ncc(-c3cc(F)cc(F)c3)cn1)CC21CC1 [Compound 126, 1-[5-(3,5-Difluoro-phenyl)-pyrimidin-2-yl]-N-(2-hydroxy-ethyl)-N-methyl-spiro[1,2-dihydro-indole-3,1′-cyclopropane]-6-carboxylic acid amide]
  IC50: < 0.1 µM

## Cn1ccc(-c2cnc(N3CC4(CC4)c4ccc(C(=O)N5CC[C@@H](N)C5)cc43)nc2)c1 [Compound 172, [(3R)-3-Amino-pyrrolidin-1-yl]-[1-[5-(1-methyl-1H-pyrrol-3-yl)-pyrimidin-2-yl]-spiro[1,2-dihydro-indole-3,1′-cyclopropane]-6-yl]-methanone]
  IC50: < 0.1 µM

## O=C(c1ccc2c(c1)N(c1ncc(-c3cc(C(F)(F)F)ccc3F)cn1)CC21CC1)N1CCOCC1 [Compound 23, [1-[5-[2-Fluoro-5-(trifluoromethyl)-phenyl]-pyrimidin-2-yl]-spiro[1,2-dihydro-indole-3,1′-cyclopropane]-6-yl]-morpholin-4-yl-methanone]
  IC50: < 0.1 µM

## COc1ccnc(-c2cnc(N3CC4(CC4)c4ccc(C(=O)N5CCOCC5)cc43)nc2)c1 [Compound 182, [1-[5-(4-Methoxy-pyridin-2-yl)-pyrimidin-2-yl]-spiro[1,2-dihdyro-indole-3,1′-cyclopropane]-6-yl]-morpholin-4-yl-methanone]
  IC50: < 0.1 µM

## O=C(NCCN1CCCC1=O)c1ccc2c(c1)N(c1ncc(-c3ccccc3F)cn1)CC21CC1 [Compound 78, 1-[5-(2-Fluorophenyl)-pyrimidin-2-yl]-N-[2-(2-oxo-pyrrolidin-1-yl)-ethyl]-spiro[1,2-dihydro-indole-3,1′-cyclopropane]-6-carboxylic acid amide]
  IC50: 0.1 to 1 µM

## Cn1cc(-c2cnc(N3CC4(CC4)c4ccc(C(=O)N5CCOCC5)cc43)nc2)cn1 [Compound 138, [1-[5-(1-Methyl-1H-pyrazol-4-yl)-pyrimidin-2-yl]-spiro[1,2-dihydro-indole-3,1′-cyclopropane]-6-yl]-morpholin-4-yl-methanone]
  IC50: < 0.1 µM

## O=C(c1ccc2c(c1)N(c1ncc(-c3ccncc3F)cn1)CC21CC1)N1CCOCC1 [Compound 147, [1-[5-(3-Fluoro-pyridin-4-yl)-pyrimidin-2-yl]-spiro[1,2-dihydro-indole-3,1′-cyclopropane]-6-yl]-morpholin-4-yl-methanone]
  IC50: < 0.1 µM

## N#CCCN1CCN(C(=O)c2ccc3c(c2)N(c2ncc(-c4ccccc4F)cn2)CC32CC2)CC1 [Compound 76, 3-[4-[1-[5-(2-Fluorophenyl)-pyrimidin-2-yl]-spiro[1,2-dihydro-indole-3,1′-cyclopropane]-6-carbonyl]-piperazin-1-yl]-propionitrile]
  IC50: 0.1 to 1 µM

## O=C(c1ccc2c(c1)N(c1ncc(-c3cccc(Cl)c3)cn1)CC21CC1)N1CCOCC1 [Compound 51, [1-[5-(3-Chlorophenyl)-pyrimidin-2-yl]-spiro[1,2-dihydro-indole-3,1′-cyclopropane]-6-yl]-morpholin-4-yl-methanone]
  IC50: 0.1 to 1 µM

## CN(C(=O)c1ccc2c(c1)N(c1ncc(-c3ccccc3F)cn1)CC21CC1)C1CCOCC1 [Compound 102, 1-[5-(2-Fluorophenyl)-pyrimidin-2-yl]-N-methyl-N-tetrahydro-pyran-4-yl-spiro[1,2-dihydro-indole-3,1′-cyclopropane]-6-carboxylic acid amide]
  IC50: 0.1 to 1 µM

## Cc1cc(-c2cnc(N3CC4(CC4)c4ccc(C(=O)N5CCOCC5)cc43)nc2)sn1 [Compound 155, [1-[5-(3-Methyl-isothiazol-5-yl)-pyrimidin-2-yl]-spiro[1,2-dihydro-indole-3,1′-cyclopropane]-6-yl]-morpholin-4-yl-methanone]
  IC50: < 0.1 µM

## O=C(c1ccc2c(c1)N(c1ncc(-c3cccnc3F)cn1)CC21CC1)N1CCOCC1 [Compound 145, [1-[5-(2-Fluoro-pyridin-3-yl)-pyrimidin-2-yl]-spiro[1,2-dihydro-indole-3,1′-cyclopropane]-6-yl]-morpholin-4-yl-methanone]
  IC50: < 0.1 µM

## N#Cc1csc(-c2cnc(N3CC4(CC4)c4ccc(C(=O)N5CCOCC5)cc43)nc2)c1 [Compound 161, 5-[2-[6-(Morpholine-4-carbonyl)-spiro[1,2-dihydro-indole-3,1′-cyclopropane]-1-yl]-pyrimidin-5-yl]-thiophene-3-carbonitrile]
  IC50: < 0.1 µM

## 4-[1-[5-(3-Fluorophenyl)-pyrimidin-2-yl]-spiro[1,2-dihydro-indole-3,1′-cyclopropane]-6-carbonyl]-piperazin-2-one [Compound 188]
  IC50: < 0.1 µM

## CN(C)C(=O)c1ccc(-c2cnc(N3CC4(CC4)c4ccc(C(=O)N5CCOCC5)cc43)nc2)c(F)c1 [Compound 65, 3-Fluoro-N,N-dimethyl-4-[2-[6-(morpholine-4-carbonyl)-spiro[1,2-dihydro-indole-3,1′-cyclopropane]-1-yl]-pyrimidin-5-yl]-benzamide]
  IC50: < 0.1 µM
